This test addresses T1, PSII reaction centers of thylakoid extract (Spinacia oleracea, UniProt P69560).
T1 construct: both lyophilized thylakoid extracts were resuspended in: Tris-HCl 50 mM pH 7.5; sorbitol 330 mM; from tissue; host or cells: plant thylakoid membrane extract (lyophilized, rehydrated)
The test can be described thus: Inhibition of Fv/Fm (photosynthetic efficiency) of thylakoid extract by atrazine. It counts as biochemical, Spinacia oleracea L.

Like-named read-outs stand apart in the source and are kept apart here.

Experimental: Each re-suspended extract was dark-incubated for 15 min with the appropriate atrazine concentration for 15 minutes.
Absorbed light was measured with a FMS1 Hansatech Instrument (Schreiber et al., 1986; lab based modulated fluorescence); under excitation light beam at 470 nm. In dark adapted condition, the following fluorescence parameters can be obtained or calculated: • Fo: minimal fluorescence when PSII reaction centers are in the fully oxidized state. It is obtained at the beginning of fluorescence measurement when only the modulating beam is illuminated. • Fm: obtained with an intense saturating pulse (2 000 μmol photons m^2/s) allowing maxi mum PSII fluorescence emission. • Fv: variable fluorescence is obtained by the difference between Fm and Fo and corresponds to maximum capacity for photochemical energy quenching.
Fv/Fm: this ratio is proportional to quantum efficiency of PSII reaction centers (Butker 1977, 1978) and represents a correlation between the chlorophyll fluorescence and the photochemical reactions (for instance oxygen evolution).
Any molecule affecting the photosystems will modify either Fo or Fm which modification necessarily disrupts (increases or decreases) the photosynthetic efficiency. […]

What is called IC50 is the concentration at which inhibition is half-maximal. Consider `CCNc1nc(Cl)nc(NC(C)C)n1` [atrazine], for which the IC50 was 0.116 µM (IC50 (atrazine concentration inhibiting 50% of the efficiency parameter), extract after 7 days at 20° C., 5 μg/mL chlorophyll, 15 min dark incubation) and 0.0765 to 0.218 µM (several batches of thylakoid extract, 95% confidence, FIG. 4, read-out: IC50 of an accepted lot (within 2σ of the mean IC50)).
